Laboratory results as given in PubChem BioAssay (NCI).
Several values for one entry are separate records, joined by “and”; a condition that tells them apart may be missing. Identical values can stand only once.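 A five-concentration, 48-hour dose response in 96-well plates underlies each endpoint, interpolated linearly between surrounding concentrations. At the GI50, growth is halved. TGI marks complete inhibition of growth.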

What was measured:
Test in all cases: growth of human tumour cells (NCI), 48 h
[1] = tested on: TK-10 renal
[2] = tested on: K-562 leukemia
[3] = tested on: SF-539 CNS
[4] = tested on: EKVX NSCLC
[5] = tested on: HS 578T breast
[6] = tested on: HCC-2998 colon
[7] = tested on: CAKI-1 renal
[8] = tested on: SNB-75 CNS
[9] = tested on: SF-268 CNS
[10] = tested on: NCI-H226 lung

Structure (SMILES) | GI50 [1] | TGI [1] | GI50 [2] | TGI [2] | GI50 [3] | TGI [3] | GI50 [4] | TGI [4] | GI50 [5] | TGI [5] | GI50 [6] | TGI [6] | GI50 [7] | TGI [7] | GI50 [8] | TGI [8] | GI50 [9] | TGI [9] | GI50 [10] | TGI [10]
COc1c(B(O)O)cccc1-c1nc2c(F)cc3n[nH]c(C)c3c2c2c1CCCC2 | 0.0215 µM | 49.6 µM | 1.68 µM | > 50 µM | 0.212 µM | 2.97 µM | 1.42 µM | > 27 µM | 0.118 µM | > 50 µM | 2.45 µM | 48.5 µM | 0.0106 µM | 0.213 µM | 0.0152 µM | 0.168 µM | 0.666 µM | 49.3 µM | 0.892 µM | > 14.2 µM
O=C(/C=C/C=C/c1ccc2c(c1)OCO2)N/N=C\c1ccc(O)cc1O | 2.95 µM | 33 µM | 2.83 µM | > 100 µM | 2.7 µM | 11.6 µM | 2.05 µM | 15.1 µM | 2.29 µM | 8.15 µM | 2.44 µM | 18.3 µM | 2.24 µM | 15.2 µM | 1.89 µM | 9.41 µM | 1.73 µM | 17.1 µM | 2.78 µM | 11.3 µM
CC(=O)Nc1cc2c3c(cccc3c1)-c1ccccc1-2 | 18.1 µM | 32.5 µM | > 100 µM | > 100 µM | > 100 µM | > 100 µM | 7.94 µM | 38.9 µM | 29.3 µM | 94.6 µM | 18.8 µM | 52.5 µM | 4 µM | 23.8 µM | > 100 µM | > 100 µM | 8.94 µM | > 100 µM | 37.8 µM | > 100 µM
COc1cc2c(cc1-c1coc3cc(O)ccc3c1=O)OCO2 | – | 43.9 µM | – | > 100 µM | – | 48.6 µM | – | > 100 µM | – | 58.2 µM | – | > 100 µM | – | 51.1 µM | – | 46.1 µM | – | 43.6 µM | – | 40.2 µM
Nc1n[nH]c2ccc([C@@H]3Nc4ccc5cn[nH]c5c4[C@H]4C5CCC(C5)[C@@H]34)cc12 (stereo partly drawn) | 15.1 µM | > 100 µM | 0.252 µM | > 100 µM | 0.299 µM | 3.38 µM | 0.554 µM | > 100 µM | 0.389 µM | > 100 µM | 0.962 µM | > 50.2 µM | 0.347 µM | > 48.8 µM | 0.171 µM | 3.59 µM | 2.59 µM | > 100 µM | 0.977 µM | 50 µM
Cc1c(Cl)c(C)c(Cl)c(O)c1Cl | – | 82.3 µM | – | 46.3 µM | – | > 100 µM | – | 82.1 µM | – | 61.2 µM | – | 50.6 µM | – | 62.7 µM | – | > 100 µM | – | > 100 µM | – | 63.3 µM
Cc1cnc(-c2ccc(-c3ccc(NC(=O)Nc4c(F)cc(F)cc4F)cc3F)c3c2C(=O)NC3)[nH]1 | 2.06 µM and 5.43 µM | 7.67 µM and 17.6 µM | 0.329 µM and 0.66 µM | 2.96 µM and 11.5 µM | 0.709 µM | 18.9 µM | 2.33 µM and 2.96 µM | > 100 µM | 0.351 µM and 1.07 µM | 5.19 µM and 13.5 µM | 2.01 µM and 1.61 µM | > 100 µM and 11.6 µM | 1.74 µM | 27.5 µM | 2.96 µM | 10.9 µM | 1.17 µM and 3.25 µM | 20.6 µM and 22.9 µM | 4.2 µM and 6.26 µM | 39.9 µM and 36.5 µM
Cc1cc(-c2cc(OC(=O)c3ccccc3)ccc2Cl)cc2nnc(Nc3ccc(OCCN4CCCC4)cc3)nc12 | 1.63 µM | 3.03 µM | 0.0472 µM | 0.324 µM | 1.29 µM | 2.57 µM | 1.61 µM | 3.09 µM | 1.58 µM | 3.94 µM | 1.81 µM | 3.37 µM | 1.36 µM | 2.69 µM | 0.508 µM | 1.89 µM | 1.88 µM | 3.75 µM | – | –
CC[C@@H](C)/C=C(C)/C=C/C(=O)c1c(O)c(-c2ccc(O)cc2)cn(OC2CC(=O)CCC(C)OC(=O)CC2O)c1=O (stereo partly drawn) | 0.442 µM | 19.9 µM | 0.386 µM | > 47.9 µM | 0.366 µM | 3.84 µM | 1.39 µM | 12.3 µM | 2.36 µM | > 67.2 µM | 2.53 µM | 13.6 µM | 0.361 µM | 3 µM | 1.07 µM | 19.3 µM | 0.282 µM | 9.39 µM | 0.285 µM | 3.05 µM
